Assay results: ChEMBL document CHEMBL3045329, “Synthesis, biological evaluation, and pharmacokinetic profiling of benzophenone derivatives as tumor necrosis factor-alpha and interleukin-6 inhibitors” (Med Chem Res, 2012)

Tests used:
[1] = Cytotoxicity against Homo sapiens (human) […] at 10 uM after 24 hr; format: cell-based; settings: cck8, 24 h
[2] = test system: THP-1; assay: Anti-inflammatory activity in Homo sapiens (human) PMA-stimulated THP1 cells assessed as inhibition of LPS-induced IL6 production at 10 uM incubated for 30 min prior to LPS-challenge measured after 24 hr by ELISA; format: functional
[3] = test system: THP-1; assay: Anti-inflammatory activity in Homo sapiens (human) PMA-stimulated THP1 cells assessed as inhibition of LPS-induced TNFalpha production at 10 uM incubated for 30 min prior to LPS-challenge measured after 24 hr by ELISA; format: functional; settings: values are per cent of control
[4] = Cytotoxicity against Homo sapiens (human) […] cells at 1 uM after 24 hr; format: cell-based
[5] = test system: THP-1; assay: Anti-inflammatory activity in Homo sapiens (human) PMA-stimulated THP1 cells assessed as inhibition of LPS-induced IL6 production at 1 uM incubated for 30 min prior to LPS-challenge measured after 24 hr by ELISA; format: functional
[6] = test system: THP-1; assay: Anti-inflammatory activity in Homo sapiens (human) PMA-stimulated THP1 cells assessed as inhibition of LPS-induced TNFalpha production at 1 uM incubated for 30 min prior to LPS-challenge measured after 24 hr by ELISA; format: functional
[7] = test system: THP-1; assay: Anti-inflammatory activity in Homo sapiens (human) PMA-stimulated THP1 cells assessed as inhibition of LPS-induced IL6 production incubated for 30 min prior to LPS-challenge measured after 24 hr by ELISA; format: functional, cell-based

Row | Structure (SMILES) | Activity [1] | inhibition at 10 µM [2] | response, % of control at 10 µM [3] | Activity [4] | inhibition at 1 µM [5] | inhibition at 1 µM [6] | IC50 [7]
1 | COc1cc(OC)c(C(=O)c2ccccc2F)c(O)c1Br | 46% | 76% | 0% | – | – | – | –
2 | C[C@@H]1C[C@H]2[C@@H]3CCC4=CC(=O)C=C[C@]4(C)[C@@]3(F)[C@@H](O)C[C@]2(C)[C@@]1(O)C(=O)CO [DEXAMETHASONE] | – | – | – | 0% | 94% | 72% | –
3 | COc1cc(OC)c(C(=O)c2cccc(Cl)c2)c(O)c1Br | 33% | 78% | 10% | – | – | – | –
4 | COc1ccc(C(=O)c2c(OC)cc(OC)c(Br)c2O)cc1 | 34% | 82% | 6% | – | – | – | –
5 | COc1cc(OC)c(C(=O)c2ccccc2C)c(O)c1Br | 40% | 70% | 0% | – | – | – | –
6 | COc1cc(OC)c(C(=O)c2cccc(C)c2)c(O)c1Br | 32% | 76% | 4% | – | – | – | –
7 | COc1cc(OC)c(C(=O)c2ccccc2)c(O)c1Br | 38% | 80% | 19% | – | – | – | –
8 | COc1cc(OC)c(C(=O)c2ccc(F)cc2)c(O)c1Br | 19% | 63% | 0% | – | – | – | 190 nM
